Measurements: US20240124434A1, “ATF6 INHIBITORS AND USES THEREOF” (Altos Labs, Inc., priority 2018, published 2024)
Read-outs that look alike come from different tables or passages of the source.

Tested on: ATF6
Assay: ERSE ATF6-luciferase reporter assay (thapsigargin-induced ER stress)
Format: cell-based, human
Method: Human bone osteosarcoma (U2-OS) cells were obtained from the American Type Culture Collection (ATCC HTB-96, ATCC Manassas, VA) and were cultured with growing medium containing Dulbecco's Modified Eagle's Medium (DMEM) (Cat. No.:SH30023.02, HyClone) supplemented with fetal bovine serum (FBS) 10% (Cat. No.: 16000044, Gibco) and 1% penicillin-streptomycin antibiotic cocktail (Cat. No.: SV30010, Hyclone).
Cignal Lenti ATF6 luc reporter (Qiagen #CLS-6031L) was used to produce a stable cell line in U2-OS cells. […] The number of response elements as well as the intervening sequence between response elements has been experimentally optimized to maximize the signal to noise ratio.
Compounds were prepared as 10 mM stock solutions and stored at −80° C.
U2-OS ATF6 luc reporter cells were thawed 3-4 days and split once prior to assays. […] At the day of experiment, cells were pre-treated for 30 min with 50 μL growing medium containing either vehicle (dimethyl sulfoxide (DMSO)) (Cat. No.: D2650, Sigma-Aldrich) or 1 μM test compound. After the pre-incubation time, 50 μL of a solution containing 0.2 μM thapsigargin (Tg)(an ER stress inducer) was added to respective wells. This Tg solution also contained vehicle or test compounds at 1 μM. The final concentration of DMSO in each well was kept at 0.3%. Plates were incubated for 8 hr in humidified chambers.
Finally, after 8 hr, plates were cooled to room temperature for 10 min prior to luciferase assays. Luciferase reactions were performed using Luciferase Assay System (Cat. No.: E4550, Promega). Briefly, each well was washed with 100 μl of PBS1X and then 20 μl of lysis reagent were added into each well. Plates were shaken for 10 min, then 50 μl of Luciferase Assay Reagent were added to each well and luminescence was read with an integration time of 1 s and a gain of 110 in a Synergy 4 Microplate reader.
For the assessment of the half-maximal inhibitory concentration (IC50) for selected compounds, dose-response assays were performed. Compounds were serially diluted using DMSO starting at 30 μM until 1 nM. The assays were run as described above.

[1] = Homo sapiens, U2OS, 8 h, 1 μM test compound, thapsigargin-induced ER stress, U2-OS ATF6 luc reporter cells, 8 hr, read-out: Inh. ATF6-Luc @ 1 μM [%]
[2] = Homo sapiens, U2OS, dose-response 30 μM to 1 nM, thapsigargin-induced ER stress, U2-OS ATF6 luc reporter cells, read-out: IC50 ATF6-Luc reporter

SMILES | IC50 [2] | inhibition at 1 µM [1] | further results
Cc1nn(-c2ccc(C(F)(F)F)cc2C(F)(F)F)cc1NC(=O)c1cc(-c2ccco2)on1 [Compound 94, N-(1-(2,4-bis(trifluoromethyl)phenyl)-3-methyl-1H-pyrazol-4-yl)-5-(furan-2-yl)isoxazole-3-carboxamide] | > 10 µM | < 25% | 
C[C@@H](c1ccc(C(F)(F)F)cc1C(F)(F)F)n1cc(NC(=O)c2cn(-c3ccccn3)nn2)cn1 [Compound 122, (S)—N-(1-(1-(2,4-bis(trifluoromethyl)phenyl)ethyl)-1H-pyrazol-4-yl)-1-(pyridin-2-yl)-1H-1,2,3-triazole-4-carboxamide] |  |  | inhibition at 1 µM (Homo sapiens, U2OS, 8 h, read-out: Inh. ATF6-Luc @ 1 μM [%], 1 μM test compound, thapsigargin-induced ER stress, U2-OS ATF6 luc reporter cells, 8 hr): < 25%; IC50 (Homo sapiens, U2OS, read-out: IC50 ATF6-Luc reporter [μM], dose-response 30 μM to 1 nM, thapsigargin-induced ER stress, U2-OS ATF6 luc reporter cells): > 10 µM
CC(c1ccc(C(F)(F)F)cc1C(F)(F)F)n1cc(NC(=O)c2cc(-c3ccccn3)on2)cn1 (single isomer, unassigned) [“Enantiomer B” of Example S5, N-(1-(1-(2,4-bis(trifluoromethyl)phenyl)ethyl)-1H-pyrazol-4-yl)-5-(pyridin-2-yl)isoxazole-3-carboxamide] |  |  | IC50: > 10 µM; Inh. ATF6-Luc @ 1 μM [%] (8 h, 1 µM): + (+ refers to <25% inhibition at 1 μM)
C[C@H](c1ccc(C(F)(F)F)cc1C(F)(F)F)n1cc(NC(=O)c2cnccn2)cn1 [Compound 142, (R)—N-(1-(1-(2,4-bis(trifluoromethyl)phenyl)ethyl)-1H-pyrazol-4-yl)pyrazine-2-carboxamide] | > 10 µM | < 25% | 
C[C@H](c1ccc(C(F)(F)F)cc1C(F)(F)F)n1cc(NC(=O)c2coc(-c3ccccn3)n2)cn1 [Compound 125, (R)—N-(1-(1-(2,4-bis(trifluoromethyl)phenyl)ethyl)-1H-pyrazol-4-yl)-2-(pyridin-2-yl)oxazole-4-carboxamide] | > 10 µM | < 25% | 
CC(c1ccc(C(F)(F)F)cc1C(F)(F)F)n1cc(NC(=O)/C=C/c2ccccn2)cn1 (centres unmarked) [Compound 83, (E)—N-(1-(1-(2,4-bis(trifluoromethyl)phenyl)ethyl)-1H-pyrazol-4-yl)-3-(pyridin-2-yl)acrylamide] | > 10 µM | < 25% | 
N#Cc1ccc(Cn2cc(NC(=O)c3cc(-c4ccco4)on3)cn2)cc1 [Compound 25, N-(1-(4-cyanobenzyl)-1H-pyrazol-4-yl)-5-(furan-2-yl)isoxazole-3-carboxamide] | > 10 µM | < 25% | 
CC(c1ccc(C(F)(F)F)cc1C(F)(F)F)n1cc(NC(=O)c2csc(-c3ccccn3)n2)cn1 (centres unmarked) [Compound 79, N-(1-(1-(2,4-bis(trifluoromethyl)phenyl)ethyl)-1H-pyrazol-4-yl)-2-(pyridin-2-yl)thiazole-4-carboxamide] |  |  | inhibition at 1 µM (Homo sapiens, U2OS, 8 h, read-out: Inh. ATF6-Luc @ 1 μM [%]): < 25%; IC50 (Homo sapiens, U2OS, read-out: IC50 ATF6-Luc reporter [μM]): > 10 µM
Cc1nc(-c2ccccn2)sc1C(=O)Nc1cnn([C@H](C)c2ccc(C(F)(F)F)cc2C(F)(F)F)c1 [Compound 106, (R)—N-(1-(1-(2,4-bis(trifluoromethyl)phenyl)ethyl)-1H-pyrazol-4-yl)-4-methyl-2-(pyridin-2-yl)thiazole-5-carboxamide] | > 10 µM | < 25% | 
C[C@H](c1ccc(C(F)(F)F)cc1C(F)(F)F)n1cc(NC(=O)c2nnc(-c3ccncn3)s2)cn1 [Compound 156, (R)—N-(1-(1-(2,4-bis(trifluoromethyl)phenyl)ethyl)-1H-pyrazol-4-yl)-5-(pyrimidin-4-yl)-1,3,4-thiadiazole-2-carboxamide] | < 1 µM | 25 to 50% | 
C[C@@H](c1ccc(C(F)(F)F)cc1C(F)(F)F)n1cc(NC(=O)c2nnc(-c3ccco3)s2)cn1 [Compound 161, (S)—N-(1-(1-(2,4-bis(trifluoromethyl)phenyl)ethyl)-1H-pyrazol-4-yl)-5-(furan-2-yl)-1,3,4-thiadiazole-2-carboxamide] | < 1 µM | 25 to 50% | 
Cc1c(NC(=O)/C=C/c2ccco2)cnn1Cc1ccc(C(F)(F)F)cc1C(F)(F)F [Compound 95, (E)—N-(1-(2,4-bis(trifluoromethyl)benzyl)-5-methyl-1H-pyrazol-4-yl)-3-(furan-2-yl)acrylamide] | > 10 µM | < 25% | 
CC(c1ccc(C(F)(F)F)cc1C(F)(F)F)n1cc(NC(=O)c2cc(-c3ccccn3)nn2C)cn1 (centres unmarked) [Compound 112, N-(1-(1-(2,4-bis(trifluoromethyl)phenyl)ethyl)-1H-pyrazol-4-yl)-1-methyl-3-(pyridin-2-yl)-1H-pyrazole-5-carboxamide] | > 10 µM | 25 to 50% | 

Now from value to molecule, other results behind:

IC50 [2] | SMILES | inhibition at 1 µM [1] | further results
> 10 µM | Cc1cccc(-c2cc(C(=O)Nc3cnn([C@H](C)c4ccc(C(F)(F)F)cc4C(F)(F)F)c3)no2)n1 [Compound 116, (R)—N-(1-(1-(2,4-bis(trifluoromethyl)phenyl)ethyl)-1H-pyrazol-4-yl)-5-(6-methylpyridin-2-yl)isoxazole-3-carboxamide] | 25 to 50% | 
> 10 µM | Cc1cccc(-c2cc(C(=O)Nc3cnn(Cc4ccc(C(F)(F)F)cc4C(F)(F)F)c3)no2)n1 [Compound 115, N-(1-(2,4-bis(trifluoromethyl)benzyl)-1H-pyrazol-4-yl)-5-(6-methylpyridin-2-yl)isoxazole-3-carboxamide] | 25 to 50% | 
> 10 µM | CC(C)(O)c1cc(C(=O)Nc2cnn(Cc3ccc(C(F)(F)F)cc3C(F)(F)F)c2)no1 [Compound 2, N-(1-(2,4-bis(trifluoromethyl)benzyl)-1H-pyrazol-4-yl)-5-(2-hydroxypropan-2-yl)isoxazole-3-carboxamide] | < 25% | 
1 to 10 µM | Cc1c(NC(=O)c2cc(-c3ccccn3)on2)cnn1Cc1ccc(C(F)(F)F)cc1C(F)(F)F [Compound 30, N-(1-(2,4-bis(trifluoromethyl)benzyl)-5-methyl-1H-pyrazol-4-yl)-5-(pyridin-2-yl)isoxazole-3-carboxamide] | 25 to 50% | 
> 10 µM | O=C(Nc1cnn(Cc2ccc(C(F)(F)F)cc2C(F)(F)F)c1)c1cc(-c2ccc(F)cc2F)on1 [Compound 16, N-(1-(2,4-bis(trifluoromethyl)benzyl)-1H-pyrazol-4-yl)-5-(2,4-difluorophenyl)isoxazole-3-carboxamide] | < 25% | 
1 to 10 µM | O=C(Nc1cnn(Cc2ccc(C(F)(F)F)cc2C(F)(F)F)c1)c1cc(-c2ccncc2)on1 [Compound 10, N-(1-(2,4-bis(trifluoromethyl)benzyl)-1H-pyrazol-4-yl)-5-(pyridin-4-yl)isoxazole-3-carboxamide] | < 25% | 
> 10 µM | C[C@H](c1ccc(C(F)(F)F)cc1C(F)(F)F)n1cc(NC(=O)c2cc(-c3ncccc3Cl)on2)cn1 [Compound 34, (R)-N-(1-(1-(2,4-bis(trifluoromethyl)phenyl)ethyl)-1H-pyrazol-4-yl)-5-(3-chloropyridin-2-yl)isoxazole-3-carboxamide] | < 25% | 
> 10 µM | Cc1nn(Cc2ccc(C(F)(F)F)cc2C(F)(F)F)cc1NC(=O)c1cc(-c2ccco2)on1 [Compound 92, N-(1-(2,4-bis(trifluoromethyl)benzyl)-3-methyl-1H-pyrazol-4-yl)-5-(furan-2-yl)isoxazole-3-carboxamide] | < 25% | 
> 10 µM | O=C(Nc1cnn(Cc2ccc(C(F)(F)F)cc2C(F)(F)F)c1)c1ccon1 [Compound 23, N-(1-(2,4-bis(trifluoromethyl)benzyl)-1H-pyrazol-4-yl)isoxazole-3-carboxamide] | < 25% | 
> 10 µM | O=C(Nc1cn(Cc2ccc(C(F)(F)F)cc2C(F)(F)F)cn1)c1cc(-c2ccco2)on1 [Compound 17, N-(1-(2,4-bis(trifluoromethyl)benzyl)-1H-imidazol-4-yl)-5-(furan-2-yl)isoxazole-3-carboxamide] | < 25% | 
> 10 µM | COc1ccccc1-c1cc(C(=O)Nc2cnn([C@H](C)c3ccc(C(F)(F)F)cc3C(F)(F)F)c2)no1 [Compound 88, (R)N-(1-(1-(2,4-bis(trifluoromethyl)phenyl)ethyl)-1H-pyrazol-4-yl)-5-(2-methoxyphenyl)isoxazole-3-carboxamide] | < 25% | 
> 10 µM | C[C@H](c1ccc(C(F)(F)F)cc1C(F)(F)F)n1cc(NC(=O)c2ccccn2)cn1 [Compound 140, (R)—N-(1-(1-(2,4-bis(trifluoromethyl)phenyl)ethyl)-1H-pyrazol-4-yl)picolinamide] | < 25% | 
